According to the NIST ThermoML archive (doi:10.1021/je3005479):

What was measured:
[1] = Liquid; for speed of sound / kinematic viscosity: 83.07 kPa; for speed of sound: Pulse-echo method; for mass density: 87.07 kPa, Vibrating tube method; for kinematic viscosity: Capillary tube (Ostwald / Ubbelohde) method
[2] = refractive index (Na D-line) (dimensionless); details: 83.07 kPa, Liquid, Standard Abbe refractometry

CC(C)C1CC(C(C)C)CC(C(C)C)C1 (stereo not drawn) [1,3,5-triisopropylcyclohexane]
Details	kinematic viscosity, [1] [m2/s]	mass density, [1] [kg/m3]	refractive index, [2]	speed of sound, [1] [m/s]
278.15 K	–	837.78	–	1405.7
283.15 K	–	834.14	–	1385
288.15 K	–	830.52	–	1364.8
293.15 K	7.66e-06	826.89	1.4571	1344.8
298.15 K	6.27e-06	823.27	1.4547	1325
303.15 K	5.22e-06	819.64	1.4525	1305.5
308.15 K	4.43e-06	816.02	–	1286.3
313.15 K	3.81e-06	812.39	–	1267.3
318.15 K	3.32e-06	808.76	–	1248.6
323.15 K	2.9e-06	805.12	–	1230
328.15 K	2.58e-06	801.49	–	1211.7
333.15 K	2.32e-06	797.85	–	1193.6
338.15 K	2.09e-06	794.21	–	1175.6
343.15 K	1.9e-06	790.57	–	1158
348.15 K	1.74e-06	–	–	–
353.15 K	1.6e-06	–	–	–
358.15 K	1.48e-06	–	–	–
363.15 K	1.37e-06	–	–	–
368.15 K	1.28e-06	–	–	–
373.15 K	1.19e-06	–	–	–
